# Test results reported in BindingDB's records for patent US12310975 (Arvinas Operations, 2025).
# Biological target: B-cell lymphoma 6 protein (Homo sapiens, UniProt P41182)
# Assay: BCL6 TR-FRET Protocol
# Procedure: Assay buffer A: 50 mM HEPES pH 7.5, 125 mM NaCl, 0.01% TritonX.Assay buffer B (made fresh): buffer A+1 mM Glutathione (or 0.5 mM DTT).Assay buffer C (made fresh): buffer B+0.03% BSA.Black Proxy plates, 96 well.15 μl final reaction volumes (BCoR-Cy5 100 nM, SA-Eu 2 nM, BCL6-avitag 2 nM).134 μM BCL6-Avitag-Biotin stock: made fresh by adding 2 μl of BCL6-Avitag-Biotin to 31.5 ml Buffer C.1 mM BCoR-Cy5 peptide (LifeTein) stock in Dimethylformamide (DMF).300 nM BCoR-Cy5 working stock: made fresh by adding 4.5 μl of the 1 mM BCoR-Cy5 peptide stock to 15 ml Buffer B.10 μM Eu-Streptavidin (Lance Eu-W1024 Streptavidin, PerkinElmer) stock solution.6 nM Eu-Streptavidin working stock: made fresh by adding 9 μl Eu-Streptavidin stock solution to 15 ml Buffer A.Compounds were diluted to 10 mM. Twenty microliters of DMSO was aliquoted to each well of the microtiter plates. From the 10 mM compound stock, 8.7 ul was aliquoted to the 20 ul DMSO and 3-fold serial dilutions (12 pt […] tritration plate, 96 well, 100% DMSO) performed. Five ul from the titration plate wells was aliquoted to 45 ul Buff C (Intermediate dilution plates, 10% DMSO).Spot 1.5 μl compound titrations to 384-well plates in duplicate, and spot 3.5 μl [8.5 nM] BCL6-bio protein to each well. The plate was mix briefly, centrifuged, and incubated for 30 minutes at room temperature.Mix 14 mls of BCoR-Cy5 [300 nM] and 14 mls [6 nM] Eu-Streptavidin. Spot 10 μl BCoR-Cy5/SA-Eu (1:1) mix to each well. The plates were incubated for 2 hours and then read on an Envision plate reader.
row,SMILES,IC50
1,"Cn1c(=O)c(OC2COC2)cc2cc(Nc3nc(N4CCC(CN5CCN(c6ccc7c(c6)C(=O)N(C6CCC(=O)NC6=O)C7=O)CC5)CC4)ncc3Cl)ccc21 (configuration not stated) [US12310975, Example 223]",> 100 nM
2,"CNC(=O)COc1cc2cc(Nc3cc(N4CCN(C(C)(C)C5CCN(c6ccc7c(c6)C(=O)N(C6CCC(=O)NC6=O)C7=O)CC5)CC4)ncc3Cl)ccc2n(C)c1=O (configuration not stated) [US12310975, Example 261]",> 100 nM
3,"CNC(=O)COc1cc2cc(Nc3nc(N4CCC(OC5CC6(CCN(c7cccc(C(=O)NC8CCC(=O)NC8=O)c7F)CC6)C5)CC4)ncc3Cl)ccc2n(C(C)C)c1=O (configuration not stated) [US12310975, Example 433]",> 100 nM
4,"CNC(=O)COc1cc2cc(Nc3nc(N4CCC(OC5CC6(CCN(c7cccc(C(=O)NC8CCC(=O)NC8=O)c7OC)CC6)C5)CC4)ncc3Cl)ccc2n(C(C)C)c1=O (configuration not stated) [US12310975, Example 449]",> 100 nM
5,"CNC(=O)COc1cc2cc(Nc3nc(N4CCN(C(C)(C)C5CCN(c6ccc(OC)c(C(=O)NC7CCC(=O)NC7=O)c6F)CC5)CC4)ncc3Cl)ccc2n(C)c1=O (configuration not stated) [US12310975, Example 468]",< 10 nM
6,"CNC(=O)COc1cc2cc(Nc3nc(N4CCC(C5(N6CCC(c7ccc8c(c7)C(=O)N(C7CCC(=O)NC7=O)C8=O)CC6)CC5)CC4)ncc3Cl)ccc2n(C)c1=O (configuration not stated) [US12310975, Example 482]",< 10 nM

# Now from value to compound:
row,IC50,SMILES
1,< 10 nM,"CNC(=O)COc1cc2cc(Nc3cc(N4CCN(CC5CCN(c6ccc7c(c6)C(=O)N(C6CCC(=O)NC6=O)C7=O)CC5)CC4)ncc3Cl)ccc2n(C)c1=O (configuration not stated) [US12310975, Example 253]"
2,< 10 nM,"CCC(C1CCN(c2ccc3c(c2)C(=O)N(C2CCC(=O)NC2=O)C3=O)CC1)N1CCN(c2ncc(Cl)c(Nc3ccc4c(c3)cc(OCC(=O)NC)c(=O)n4C)n2)CC1 (configuration not stated) [US12310975, Example 337]"
3,< 10 nM,"CNC(=O)COc1cc2cc(Nc3nc(N4CCN(CC5CCN(c6cc(OC)cc7c6C(=O)N(C6CCC(=O)NC6=O)C7=O)CC5)CC4)ncc3Cl)ccc2n(C(C)C)c1=O (configuration not stated) [US12310975, Example 414]"
4,< 10 nM,"CNC(=O)COc1cc2cc(Nc3nc(N4CCC(CN5CCC6(CC5)CN(c5cccc(C(=O)NC7CCC(=O)NC7=O)c5F)C6)CC4)ncc3Cl)ccc2n(C(C)C)c1=O (configuration not stated) [US12310975, Example 419]"
5,< 10 nM,"CNC(=O)COc1cc2cc(Nc3nc(N4CC5(CCN(CC6CCN(c7cccc8c7C(=O)N(C7CCC(=O)NC7=O)C8=O)CC6)CC5)C4)ncc3Cl)ccc2n(C(C)C)c1=O (configuration not stated) [US12310975, Example 426]"
6,> 100 nM,"CNC(=O)COc1cc2cc(Nc3nc(N4CCC(CN5CCCN(c6cccc(N7CCC(=O)NC7=O)c6)CC5)CC4)ncc3Cl)ccc2n(C(C)C)c1=O [US12310975, Example 498]"
